Measurements as given in patent publication US20220088403A1, “Methods And Compositions For Treating Coronavirus” (NOVOCURE GMBH, priority 2020, published 2022).

Columns and labels:
HCoV-229E [1] = experiment: Intracellular (cellular) viral load by RT-qPCR, combined effect of TTFields with remdesivir; assay type: cell-based, HCoV-229E in human MRC-5 lung fibroblast cells; settings: for Calculated additive: Remdesivir alone multiplied by TTFields alone
HCoV-229E [2] = experiment: Extracellular viral amount (virions secreted to the media) by RT-qPCR, combined effect of TTFields with remdesivir; assay type: cell-based, HCoV-229E in human MRC-5 lung fibroblast cells; settings: 48 hpi

CCC(CC)COC(=O)[C@H](C)N[P@](=O)(OC[C@H]1O[C@@](C#N)(c2ccc3c(N)ncnn23)[C@H](O)[C@@H]1O)Oc1ccccc1 [remdesivir] was tested, and the “reduction of cellular viral load” value (HCoV-229E [1]; 0.023 μM remdesivir alone, MRC-5 infected 3 hr, MOI 0.01, 48 hpi) was 65%, the inhibition at 0.011 µM (HCoV-229E [1]; Human coronavirus 229E, MRC5, 0.011 μM remdesivir alone, MRC-5 infected 3 hr, MOI 0.01, 48 hpi) was 27% and the “Remdesivir alone (viral load remaining relative to control)” value (HCoV-229E [1]; Remdesivir concentration 0.011) was 73%. For the same molecule, the Calculated additive (HCoV-229E [1]; Remdesivir concentration 0.011) was 42%, the “Measured combined (viral load remaining relative to control)” value (HCoV-229E [1]; Remdesivir concentration 0.011 with TTFields) was 46% and the “Remdesivir alone (viral load remaining relative to control)” value (HCoV-229E [1]; Remdesivir concentration 0.023) was 35%. For the same molecule, the Calculated additive (HCoV-229E [1]; Remdesivir concentration 0.023) was 20%, the “Measured combined (viral load remaining relative to control)” value (HCoV-229E [1]; Remdesivir concentration 0.023 with TTFields) was 15% and the “reduction of viral load” value (HCoV-229E [1]; high dose (0.023 μM) remdesivir with concomitant 150 kHz TTFields, 48 hpi) was 85%. The “reduction of viral load” value (HCoV-229E [1]; low dose (0.011 μM) remdesivir with concomitant 150 kHz TTFields, 48 hpi) was 54%, the “reduction in number of virions secreted to the media” value (HCoV-229E [2]; 0.011 μM remdesivir alone) was 31% and the “reduction in number of virions secreted to the media” value (HCoV-229E [2]; 0.023 μM remdesivir alone) was 75%. The “decrease in number of virions secreted to the media” value (HCoV-229E [2]; high dose (0.023 μM) remdesivir with concomitant 150 kHz TTFields) was 88% and the “decrease in number of virions secreted to the media” value (HCoV-229E [2]; low dose (0.011 μM) remdesivir with concomitant 150 kHz TTFields) was 68%.
